Measurements published in PubChem BioAssay AID248 (DTP/NCI, 2004).
Toxic doses and inconclusive results are not listed. No stated cut-off is given here; in the data, active means T/C of 150% or more; inactive means T/C below 125%.

Tested on: L1210 leukemia ip in BDF1 mice, survival T/C
Assay: NCI In Vivo Anticancer Drug Screen. Data for tumor model L1210 Leukemia (intraperitoneal) in B6D2F1 (BDF1) mice
Conditions: endpoint: mean survival time, higher = longer survival
Outline: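 In this screen, tumor-bearing mice given compound are compared to those given vehicle, and their survival values are reported as a treated-to-control quotient.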

[1] = dose: 40.0 mg/kg/injection, schedule: Q04DX003 (ip), vehicle: Klucel (hydroxypropylcellulose) (HPC)
[2] = dose: 80.0 mg/kg/injection, schedule: Q04DX003 (ip), vehicle: Klucel (hydroxypropylcellulose) (HPC)
[3] = dose: 200.0 mg/kg/injection, schedule: Q04DX003 (ip), vehicle: Klucel (hydroxypropylcellulose) (HPC)
[4] = dose: 25.0 mg/kg/injection, schedule: Q04DX003 (ip), vehicle: saline
[5] = dose: 50.0 mg/kg/injection, schedule: Q01DX001 (ip), vehicle: saline
[6] = dose: 50.0 mg/kg/injection, schedule: Q04DX003 (ip), vehicle: saline
[7] = dose: 100.0 mg/kg/injection, schedule: Q01DX001 (ip), vehicle: saline
[8] = dose: 100.0 mg/kg/injection, schedule: Q04DX003 (ip), vehicle: saline
[9] = dose: 100.0 mg/kg/injection, schedule: Q04DX002 (ip), vehicle: saline with Tween-80
[10] = dose: 200.0 mg/kg/injection, schedule: Q04DX002 (ip), vehicle: saline with Tween-80
[11] = dose: 200.0 mg/kg/injection, schedule: Q04DX003 (ip), vehicle: saline
[12] = dose: 400.0 mg/kg/injection, schedule: Q04DX002 (ip), vehicle: saline with Tween-80
[13] = dose: 400.0 mg/kg/injection, schedule: Q04DX003 (ip), vehicle: saline
[14] = dose: 100.0 mg/kg/injection, schedule: Q04DX003 (ip), vehicle: Klucel (hydroxypropylcellulose) (HPC)
[15] = dose: 400.0 mg/kg/injection, schedule: Q04DX003 (ip), vehicle: Klucel (hydroxypropylcellulose) (HPC)
[16] = dose: 100.0 mg/kg/injection, schedule: Q01DX009 (ip), vehicle: Klucel (hydroxypropylcellulose) (HPC)
[17] = dose: 200.0 mg/kg/injection, schedule: Q01DX009 (ip), vehicle: Klucel (hydroxypropylcellulose) (HPC)
[18] = dose: 400.0 mg/kg/injection, schedule: Q01DX009 (ip), vehicle: Klucel (hydroxypropylcellulose) (HPC)
[19] = dose: 100.0 mg/kg/injection, schedule: Q04DX003 (ip), vehicle: saline with Tween-80
[20] = dose: 200.0 mg/kg/injection, schedule: Q04DX003 (ip), vehicle: saline with Tween-80
[21] = dose: 400.0 mg/kg/injection, schedule: Q04DX003 (ip), vehicle: saline with Tween-80
[22] = dose: 50.0 mg/kg/injection, schedule: Q01DX009 (ip), vehicle: saline with Tween-80
[23] = dose: 100.0 mg/kg/injection, schedule: Q01DX009 (ip), vehicle: saline with Tween-80
[24] = dose: 200.0 mg/kg/injection, schedule: Q01DX009 (ip), vehicle: saline with Tween-80
[25] = dose: 50.0 mg/kg/injection, schedule: Q04DX002 (ip), vehicle: saline with Tween-80
[26] = dose: 100.0 mg/kg/injection, schedule: Q04DX002 (ip), vehicle: Klucel (hydroxypropylcellulose) (HPC)
[27] = dose: 200.0 mg/kg/injection, schedule: Q04DX002 (ip), vehicle: Klucel (hydroxypropylcellulose) (HPC)
[28] = dose: 400.0 mg/kg/injection, schedule: Q04DX002 (ip), vehicle: Klucel (hydroxypropylcellulose) (HPC)

Measured: T/C

CC/C(Cc1ccc(O)cc1)=N\N=C(N)N
inactive: dose: 15.0 mg/kg/injection, schedule: Q01DX Z (ip), vehicle: methylcellulose (MC) 97 % of control | dose: 30.0 mg/kg/injection, schedule: Q01DX Z (ip), vehicle: methylcellulose (MC) 94 % of control | dose: 30.0 mg/kg/injection, schedule: Q01DX Z (oral), vehicle: methylcellulose (MC) 92 % of control | dose: 60.0 mg/kg/injection, schedule: Q01DX Z (ip), vehicle: methylcellulose (MC) 97 % of control | dose: 60.0 mg/kg/injection, schedule: Q01DX Z (oral), vehicle: methylcellulose (MC) 98 % of control | dose: 240.0 mg/kg/injection, schedule: Q01DX Z (oral), vehicle: methylcellulose (MC) 93 % of control

CC1(C(Cl)Cl)C=CC=CC1=O (centres undefined)
inactive: dose: 100.0 mg/kg/injection, schedule: Q01DX001 (ip), vehicle: Klucel (hydroxypropylcellulose) (HPC) 102 % of control | dose: 200.0 mg/kg/injection, schedule: Q01DX001 (ip), vehicle: Klucel (hydroxypropylcellulose) (HPC) 106 % of control | dose: 400.0 mg/kg/injection, schedule: Q01DX001 (ip), vehicle: Klucel (hydroxypropylcellulose) (HPC) 104 % of control

O=C(CCCCC(=O)OCCBr)OCCBr
inactive: dose: 20.0 mg/kg/injection, schedule: Q04DX003 (ip), vehicle: Klucel (hydroxypropylcellulose) (HPC) 100 % of control | [1] 105 % of control | [2] 114 % of control | [3] 102 % of control

C/C(=N\[N+](C)(C)C)c1ccc(C)cc1
inactive: dose: 12.5 mg/kg/injection, schedule: Q01DX001 (ip), vehicle: saline 112 % of control | dose: 25.0 mg/kg/injection, schedule: Q01DX001 (ip), vehicle: saline 104 % of control | [4] 107 % of control | [5] 108 % of control | [6] 100 % of control | [7] 101 % of control | [8] 105 % of control

[Cl][Pt+2][Cl].[NH-]C1CCCCC1.[NH-]C1CCCCC1
inactive: [4] 100 % of control | [1] 103 % of control | [6] 110 % of control | [2] 103 % of control | [9] 94 % of control | [8] 103 % of control | dose: 160.0 mg/kg/injection, schedule: Q04DX003 (ip), vehicle: Klucel (hydroxypropylcellulose) (HPC) 101 % of control | [10] 117 % of control | [11] 108 % of control | dose: 320.0 mg/kg/injection, schedule: Q04DX003 (ip), vehicle: Klucel (hydroxypropylcellulose) (HPC) 106 % of control | [12] 102 % of control | [13] 108 % of control | dose: 640.0 mg/kg/injection, schedule: Q04DX003 (ip), vehicle: Klucel (hydroxypropylcellulose) (HPC) 102 % of control

CC1(C)CC(Br)C(=O)c2ccccc21 (centres undefined)
inactive: [14] 100 % of control | [3] 105 % of control | [15] 97 % of control

Cc1ccc(NC(=O)COc2ccc(Cl)cc2)cc1Cl
inactive: [16] 94 % of control | [14] 93 % of control | [17] 86 % of control | [3] 90 % of control | [18] 93 % of control | [15] 101 % of control

Cc1cccc(Cl)c1NC(=S)N1CCCC1
inactive: [16] 94 % of control | [17] 94 % of control | [18] 96 % of control

CS(=O)(=O)OCCN(CCOS(C)(=O)=O)c1ccc([N+](=O)[O-])c(Cl)c1
inactive: [5] 96 % of control | [7] 96 % of control | dose: 200.0 mg/kg/injection, schedule: Q01DX001 (ip), vehicle: saline 100 % of control | dose: 400.0 mg/kg/injection, schedule: Q01DX001 (ip), vehicle: saline 91 % of control

COC(=O)NCCc1cc(OC)c(OC)cc1Br
inactive: [19] 86 % of control | [20] 91 % of control | [21] 91 % of control

Cc1ccc(Oc2ccc3cc[n+](C)cc3c2)cc1
inactive: dose: 6.25 mg/kg/injection, schedule: Q04DX002 (ip), vehicle: DMSO 94 % of control | dose: 12.5 mg/kg/injection, schedule: Q04DX002 (ip), vehicle: DMSO 105 % of control | dose: 25.0 mg/kg/injection, schedule: Q04DX002 (ip), vehicle: DMSO 102 % of control

CC(C)(C)C1=CC(=O)C(C(C)(C)C)=CC1=O
inactive: [22] 104 % of control | [23] 98 % of control | [24] 95 % of control

CCC(Nc1ccccc1)Nc1ccccc1
inactive: dose: 100.0 mg/kg/injection, schedule: Q04DX003 (ip), vehicle: acetone 112 % of control | dose: 200.0 mg/kg/injection, schedule: Q04DX003 (ip), vehicle: acetone 87 % of control | dose: 400.0 mg/kg/injection, schedule: Q04DX003 (ip), vehicle: acetone 94 % of control

CCCCCC(=O)/C=C/c1ccc(C)cc1
inactive: [8] 102 % of control | [11] 100 % of control | [13] 112 % of control

CC1(C)OC2OC(C(O)CSCc3ccccc3)C(O)C2O1 (centres undefined)
inactive: [22] 94 % of control | dose: 100.0 mg/kg/injection, schedule: Q01DX001 (ip), vehicle: saline with Tween-80 92 % of control | [23] 93 % of control | dose: 200.0 mg/kg/injection, schedule: Q01DX001 (ip), vehicle: saline with Tween-80 89 % of control | [24] 97 % of control

O=Cc1cc(Cl)ccc1O
inactive: [16] 108 % of control | [17] 102 % of control

CC(O)CNC1CCC(C)CC1 (centres undefined)
inactive: dose: 75.0 mg/kg/injection, schedule: Q01DX001 (ip), vehicle: acid diluted with saline 96 % of control | dose: 150.0 mg/kg/injection, schedule: Q01DX001 (ip), vehicle: acid diluted with saline 100 % of control

CCP(=S)(CC)CCCCCP(=S)(CC)CC
inactive: [19] 92 % of control | [20] 95 % of control | [21] 87 % of control

NC(=S)NC(=S)Nc1ccccc1
inactive: [14] 103 % of control | [3] 110 % of control | [15] 106 % of control

Oc1ccc(N=Cc2ccc(C=Nc3ccc(O)cc3)cc2)cc1
inactive: [23] 106 % of control | [19] 112 % of control | [24] 100 % of control | [20] 100 % of control | dose: 400.0 mg/kg/injection, schedule: Q01DX009 (ip), vehicle: saline with Tween-80 105 % of control | [21] 100 % of control

CCCc1ccccc1NC1=NCCO1
inactive: [25] 98 % of control | [9] 95 % of control | [19] 90 % of control | [10] 92 % of control | [20] 87 % of control | [12] 88 % of control | [21] 89 % of control

N#Cc1ccc[n+]([O-])c1
inactive: [19] 100 % of control | [20] 101 % of control | [21] 97 % of control

O=C1CC(c2ccccc2)(c2ccccc2)c2cc(-c3ccccc3)c(-c3ccccc3)cc21
inactive: [26] 106 % of control | [27] 103 % of control | [28] 95 % of control

O=C(/C=N/O)/C=N/O (tested in a mixture with another compound)
inactive: dose: 6.25 mg/kg/injection, schedule: Q01DX009 (ip), vehicle: saline 97 % of control | dose: 12.5 mg/kg/injection, schedule: Q01DX009 (ip), vehicle: saline 96 % of control | dose: 12.5 mg/kg/injection, schedule: Q04DX003 (ip), vehicle: saline 96 % of control | dose: 25.0 mg/kg/injection, schedule: Q01DX009 (ip), vehicle: saline 96 % of control | [4] 104 % of control

CCCCN(CCCC)S(=O)(=O)CCC
inactive: [25] 101 % of control | [9] 97 % of control | [10] 97 % of control

NC(=O)N/N=C/c1ccc([N+](=O)[O-])cc1
inactive: [26] 96 % of control | [27] 110 % of control | [28] 107 % of control
